PMC8581430, “Peptide ligands targeting FGF receptors promote recovery from dorsal root crush injury via AKT/mTOR signaling” (Theranostics, 2021)

Legend:
[1] = system: AKT (phosphorylated) in DRG explants; assay: Western blot of phosphorylated AKT in DRG explants; format: cell-based, rat; details: CH02 20 μM + BGJ398 2 μM, 4 h, n = 3
Description: Figure 6 Phosphoproteomic profiling of the intracellular signaling pathway used by CH02 for augmenting nerve regeneration. (A) GO biological process analysis of proteins corresponding to differentially expressed phosphorylated peptides. Ordinates indicate the enriched GO terms; abscissae represent the gene ratio; size of the dots indicates the number of proteins enriched in this biological process. (B) KEGG pathway analysis of proteins corresponding to differentially expressed phosphorylated peptides. Ordinates indicate the enriched pathway term; abscissae represent the gene ratio; size of the dots indicates number of proteins enriched in this pathway. […] (D-E) Quantification of p-ERK1/2 and p-AKT expression levels. n = 3 independent experiments. Relative protein expression level was quantified after normalization to the corresponding total proteins. […] (G-H) Quantification of p-ERK1/2 and p-AKT expression levels. n = 3 independent experiments. Relative protein expression level was quantified after normalization to the corresponding total proteins. […] The axon is shown in fluorescence (NF200) images. […] For quantification of axon length, neurons were immunostained using an antibody against β-tubulin. […] (N) Quantification of TUNEL-positive neurons (M) using ImageJ software (n = 5 for each condition; ***p < 0.001 by one-way ANOVA with Dunnett's test; mean ± SEM). […]

primary DRG neurons = assay: TUNEL assay of DRG neuron apoptosis induced by H2O2; format: cell-based, Sprague-Dawley rat; details: CH02 + inhibitor 24 h, then H2O2 12 h, n = 5
Description: Figure 3 Effect of the CH02 peptide on axon growth and neuron survival. (A) Representative images of the CH02 peptide effect on axon growth in adult primary DRG neurons. DRG neurons were obtained from adult Sprague-Dawley rats. After 12-h of culture, neurons were stimulated with CH02 or bFGF for 48 h. Axonal outgrowth was assessed by immunocytochemistry using an antibody against β-tubulin, an axonal marker. Images were acquired from random neurons by fluorescence microscopy. Scale bars = 50 μm. (B) Quantification of the longest axon length of each neuron randomly selected in three independent experiments from (A), using Image-Pro Plus 6.0 software (n = 48 for each condition; *p < 0.05, ****p < 0.0001 by one-way ANOVA with Dunnett's test; ns, not significant; mean ± SD). […] The axon is shown in fluorescence (β3-tubulin) images. […] (D) Quantification of axon growth of DRG explants from (C) using the Neurite-J software (n=4 for each condition; *control vs. CH02; #control vs. bFGF; *p < 0.05, **p < 0.01, ***p < 0.001, #p < 0.05, ##p < 0.01 by two-way ANOVA with Dunnett's test; ns, not significant; mean ± SEM). […] LDH released from damaged cell membranes was detected by an LDH assay kit. The results are expressed as the mean ± SEM (**p < 0.01 by one-way ANOVA with Dunnett's test; ns, not significant, compared with the control group). […] Apoptotic neurons were detected by a TUNEL apoptosis assay kit. […]

| SMILES | effect of inhibitor on CH02-upregulated phosphorylated AKT [1] | effect of inhibitor on protective effect of CH02 against H2O2-induced apoptosis (primary DRG neurons) |
| --- | --- | --- |
| CCN1CCN(c2ccc(Nc3cc(N(C)C(=O)Nc4c(Cl)c(OC)cc(OC)c4Cl)ncn3)cc2)CC1 [BGJ398] | counteracted CH02 effect on upregulating phosphorylated AKT and ERK levels | – |
| N#CC(=C(/N)Sc1ccccc1N)/C(C#N)=C(/N)Sc1ccccc1N [U0126] | – | significantly reduced the protective effect of CH02 on neurons from apoptosis induced by H2O2 |
